In patent publication EP4438596A1, “DIAMINOPYRIMIDINE DERIVATIVES AS HDAC AND DHFR DUAL-TARGETING INHIBITORS AND USE THEREOF IN PREVENTING AND TREATING MALARIA” (Université de Lille, priority 2023, dated 2024):
Read-outs that look alike come from different tables or passages of the source.

Assays:
[1] = tested on: P. berghei ANKA parasites; assay: Peters 4-day suppressive test, oral efficacy in P. berghei-infected mice; type: in vivo, Plasmodium berghei; conditions: for activity in vivo against Plasmodium berghei / number of mice showing blood parasites / parasitemia (mean ± sd): Balb/C mice; for parasites in treated mice, follow-up: until the end of the experiments; for parasite clearance after oral administration: 10 mg/kg
Experimental: Compounds powder was dissolved in DMSO and sonicated for 10 min. Appropriate volume of 50%W/v HPβCD was added dropwise under gentle swirling. After 10 min sonication, DPBS was added dropwise under gentle swirling and the mixture was sonicated again for 10 min. After checking the pH (5.5 - 7), the solution was filtered (0.22µm) and conserved at room temperature for max 2 days. Final concentration of compounds was 2.5 mg/mL, 1 mg/mL or 0.1 mg/mL for mice treatment with 25 mg/kg, 10 mg/kg or 1mg/kg doses.
10 weeks-old Balb/C male mice were purchased from Janvier Labs.
P. berghei ANKA parasites stabilates conserved in liquid nitrogen were thawed and injected intraperitoneally (ip) into 2-3 mice (10^6 infected red blood cells (RBC) / mouse). When parasitemia reached 3-5%, mice were bled and groups of six BALB/c male mice were infected with 10^6 P. berghei ANKA parasites (day 0), and treated per os (p.o.) twice a day on days 0, 1, 2 and 3. […] On day 4 post infection (p.i.), the peripheral blood parasitemia of all mice was evaluated via microscopic examination of Giemsa-stained thin blood smears. Parasitemia was then followed for two weeks.

[2] = tested on: multidrug-resistant P. falciparum line Dd2; assay: Plasmodium falciparum growth inhibition assay (SYBR Green I, flow cytometry), multidrug-resistant line; type: cell-based; conditions: Plasmodium falciparum, DD2, 48 h, line resistant to CQ, PYR and mefloquine, mean ± SD, n ≥ 2, read-out: PfDd2 IC50
Experimental: (§1) Plates were incubated under standard P. falciparum culture conditions for 48 h. […] Fixed parasitized red blood cells (RBC) were stored at 4 °C in the dark until flow cytometry analysis. Parasite growth was assessed by flow cytometry on a BD FACS Cantoll (BD Biosciences) or a Attune™ NxT Flow Cytometer (Invitrogen). Cell doublets were excluded from the analysis using a forward scatter (FSC)-width versus FSC-area dot plot. Infected and uninfected erythrocytes were gated on the basis of their FSC and side scatter (SSC) signals. Fluorescence analysis (Green fluorescence FITC) was performed using BD FACSDiva software (BD Biosciences) on a total of 200,000 acquired events. […] Fluorescence of non-infected RBC was adjusted to plot between 10° and 10^2. Results are expressed as the percentage of growth inhibition.
(§2) All IC50 values were calculated using log-linear interpolation (www.antimalarial-icestimator.net), with mean values (± SD) determined over at least two independent experiments.

[3] = tested on: P. falciparum 3D7-infected erythrocytes; assay: Plasmodium falciparum growth inhibition assay (SYBR Green I, flow cytometry), drug-sensitive strain; type: cell-based; conditions: Plasmodium falciparum, 3D7, Erythrocyte, 48 h incubation
Experimental: as §1, §2

HEK293 cells = assay: Cytotoxicity on HEK293 cells (Alamar Blue); type: cell-based, Human; conditions: ratio of the minimum inhibitory concentration of HEK293 cells (50 µM) to the IC50 of Pf3D7
Experimental: Cells were seeded out at 1.5 × 10^3 cells per well in a 96-well cell culture plate (TPP, Switzerland).
After 24 h, Alamar Blue reagent (Invitrogen, CA) was added according to the manufacturer's instructions and incubated again for 21 h before samples were analyzed.

[4] = Experiment 3, 1 mg/kg p.o. twice a day on days 0-3, day 4 p.i.
[5] = Experiment 3, 1 mg/kg p.o. twice a day on days 0-3, day 5 p.i.
[6] = Experiment 3, 1 mg/kg p.o. twice a day on days 0-3, day 6 p.i.
[7] = Experiment 3, 1 mg/kg p.o. twice a day on days 0-3, day 7 p.i.
[8] = Experiment 3, 1 mg/kg p.o. twice a day on days 0-3, day 8 p.i.
[9] = Experiment 3, 1 mg/kg p.o. twice a day on days 0-3, day 10 p.i.
[10] = Experiments 1 and 2, 10 mg/kg p.o. twice a day on days 0-3, day 4 p.i.
[11] = Experiments 1 and 2, 10 mg/kg p.o. twice a day on days 0-3
[12] = mean ± SD, n ≥ 2, read-out: Pf3D7 IC50

| SMILES | number of mice showing blood parasites [1, 4] | number of mice showing blood parasites [1, 5] | parasitemia (mean ± sd) [1, 5] | number of mice showing blood parasites [1, 6] | parasitemia (mean ± sd) [1, 6] | number of mice showing blood parasites [1, 7] | parasitemia (mean ± sd) [1, 7] | number of mice showing blood parasites [1, 8] | parasitemia (mean ± sd) [1, 8] | number of mice showing blood parasites [1, 9] | parasitemia (mean ± sd) [1, 9] | parasites in treated mice [1, 10] | parasites in treated mice, follow-up [1, 11] | parasite clearance after oral administration [1] | IC50 [2] [nM] | IC50 [3, 12] [nM] | IC50 ([3]; read-out: IC50 (Pf3D7)) [nM] | Selectivity Index HEK293 / Pf3D7 (HEK293 cells) | also measured |
| --- | --- | --- | --- | --- | --- | --- | --- | --- | --- | --- | --- | --- | --- | --- | --- | --- | --- | --- | --- |
| CCc1nc(N)nc(N)c1OCCCOc1ccccc1/C=C/C(=O)NO.Cl [13·HCl, (E)-3-{2-[3-(2,4-Diamino-6-ethylpyrimidin-5-yloxy)propoxy]phenyl}-N-hydroxyacrylamide hydrochloride] | 2/6 | 3/6 | 0,55 ± 0,83% | 4/6 | 2,05 ± 2,37% | 5/6 | 2,39 ± 2,22% | 5/6 | 3,94 ± 3,06% | 5/5 | 6,02 ± 2,66% | undetectable | remained undetectable | achieved parasite clearance | 11.1 ± 7.2 | 0.081 ± 0.043 | < 0.1 |  | activity in vivo against Plasmodium berghei ([1]; Experiment 2 (Fig. 2), 10mg/kg orally twice a day on days 0,1,2,3): active in vivo; parasitemia (mean ± sd) ([1]; Experiment 3, 1 mg/kg p.o. twice a day on days 0-3, day 4 p.i., hydrochloride, 1 mg/kg): 0,12 ± 0,18%; parasitemia (mean ± sd) ([1]; Experiment 3, 1 mg/kg p.o. twice a day on days 0-3, day 4 p.i., listed as 13, hydrochloride, 1 mg/kg): 0.12% |
| CCc1nc(N)nc(N)c1OCCCOc1cccc(C(=O)NOCc2ccccc2)c1 [Compound 12, N-(Benzyloxy)-3-[3-(2,4-diamino-6-ethylpyrimidin-5-yloxy)propoxy]benzamide] |  |  |  |  |  |  |  |  |  |  |  |  |  |  |  | 4.84 ± 1.05 |  | > 1.0E+07 |  |
| CCc1nc(N)nc(N)c1OCCCOc1ccccc1CCC(=O)NO.Cl [1·HCl, 3-(2-[3-(2,4-Diamino-6-ethylpyrimidin-5-yloxy)propoxy]phenyl)-N-hydroxypropanamide hydrochloride] | 0/6 | 1/6 | 0,07 ± 0,16% | 1/6 | 0,15 ± 0,37% | 1/6 | 0,31 ± 0,76% | 1/6 | 1,31 ± 3,21% | 1/6 | 0,7 ± 1,72% | undetectable | remained undetectable | achieved parasite clearance | 19.8 ± 0.9 | 0.17 ± 0.018 | < 0.2 |  | activity in vivo against Plasmodium berghei ([1]; Experiment 1 (Fig. 1), 10mg/kg and 25mg/kg orally twice a day on days 0,1,2,3): active in vivo; parasites in treated mice [1, 4]: undetectable; parasitemia (mean ± sd) [1, 4]: 0% |
| CCc1nc(N)nc(N)c1OCCOc1ccccc1CCC(=O)NO.Cl [2·HCl, 3-(2-[2-(2,4-Diamino-6-ethylpyrimidin-5-yloxy)ethoxy]phenyl)-N-hydroxypropanamide hydrochloride] |  |  |  |  |  |  |  |  |  |  |  |  |  |  |  | 11.4 ± 7.9 |  | > 4.4E+06 |  |
